The record followed here is patent US8349883B2, “Hydroxamate-based inhibitors of deacetylases B” (Novartis AG, priority 2008, dated 2013).

As a reminder, the IC50 is the concentration at which inhibition is half-maximal. Low readings indicate greater potency in that assay, high ones weaker potency in that assay.

For assay [1], the target named is T1, HDAC-1 (Homo sapiens, UniProt Q13547).
T1 construct: made in house; host or cells: Sf9 or Sf21 insect cells (baculovirus, donor vector pFB-GSTX3)
As to the kind of experiment: HDAC inhibition assay (purified GST-HDAC protein). The class given is biochemical.

Assay [2] has as its system HCT116. The experiment in a line: HCT116 IC50. The format is cell-based. Conditions: Homo sapiens, HCT-116.

T1 sequence (Q13547 whole entry, species assumed): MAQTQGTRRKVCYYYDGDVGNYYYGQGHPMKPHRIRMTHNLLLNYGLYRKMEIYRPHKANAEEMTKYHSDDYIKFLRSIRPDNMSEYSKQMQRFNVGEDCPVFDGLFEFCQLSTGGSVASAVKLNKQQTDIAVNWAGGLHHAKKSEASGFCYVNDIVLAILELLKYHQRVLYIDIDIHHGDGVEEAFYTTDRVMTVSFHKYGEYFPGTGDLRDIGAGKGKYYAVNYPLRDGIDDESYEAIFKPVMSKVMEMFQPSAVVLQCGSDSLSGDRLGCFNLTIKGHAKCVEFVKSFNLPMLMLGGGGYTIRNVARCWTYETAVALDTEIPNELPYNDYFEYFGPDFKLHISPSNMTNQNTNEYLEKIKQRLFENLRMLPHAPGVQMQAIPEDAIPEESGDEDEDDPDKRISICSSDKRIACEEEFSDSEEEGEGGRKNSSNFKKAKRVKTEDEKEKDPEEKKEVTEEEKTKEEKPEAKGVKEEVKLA

Consider `O=C(/C=C/c1ccc([C@@H]2CCCN2CCc2nnnn2-c2ccc([N+](=O)[O-])cc2)cc1)NO` [Compound 107, (E)-N-Hydroxy-3-[4-((S)-1-{2-[1-(4-nitro-phenyl)-1H-tetrazol-5-yl]-ethyl}-pyrrolidin-2-yl)-phenyl]-acrylamide], for which the IC50 in assay [1] worked out at 0.17 µM; in assay [2], 0.54 µM.

With `O=C(/C=C/c1ccc([C@@H]2CCCN2CCc2cn(Cc3ccccc3)nn2)cc1)NO` [Compound 78, (E)-3-(4-{(S)-1-[2-(1-Benzyl-1H-[1,2,3]triazol-4-yl)-ethyl]-pyrrolidin-2-yl}-phenyl)-N-hydroxy-acrylamide], the results for the IC50 in assay [1] and in assay [2] were 0.022 µM and 0.12 µM, respectively.

For the compound `O=C(/C=C/c1ccc([C@@H]2CCCN2CCc2nnn(-c3ccc([N+](=O)[O-])cc3)n2)cc1)NO` [Compound 106, (E)-N-Hydroxy-3-[4-((S)-1-{2-[2-(4-nitro-phenyl)-2H-tetrazol-5-yl]-ethyl}-pyrrolidin-2-yl)-phenyl]-acrylamide], the IC50 in assay [1] was found to be 0.067 µM; in assay [2], 0.18 µM.

Regarding `O=C(/C=C/c1ccc(C2CCCN2CCc2c[nH]c3ccccc23)cc1)NO` (centres unmarked) [Compound 3, (E)-N-Hydroxy-3-(4-{1-[2-(1H-indol-3-yl)-ethyl]-pyrrolidin-2-yl}-phenyl)-acrylamide], the IC50 in assay [1] amounted to 0.001 µM; in assay [2], 0.0012 µM.

For the compound `Cc1[nH]c2ccccc2c1CCN1CCN(C)CC1c1ccc(/C=C/C(=O)NO)cc1` (centres unmarked) [Compound 88, (E)-N-Hydroxy-3-(4-{4-methyl-1-[2-(2-methyl-1H-indol-3-yl)-ethyl]-piperazin-2-yl}-phenyl)-acrylamide], the IC50 in assay [1] worked out at 0.009 µM; in assay [2], 0.024 µM.

Regarding `Cc1cc2ccccc2n1CCN1CCCC1c1ccc(/C=C/C(=O)NO)cc1` (centres unmarked) [Compound 4, (E)-N-Hydroxy-3-(4-{1-[2-(2-methyl-indol-1-yl)-ethyl]-pyrrolidin-2-yl}-phenyl)-acrylamide], the IC50 in assay [1] and in assay [2] was 0.01 µM in each case.

Regarding `O=C(/C=C/c1ccc(C2CCCN2CCc2ccc(Cl)cc2Cl)cc1)NO` (centres unmarked) [Compound 26, (E)-3-(4-{1-[2-(2,4-Dichloro-phenyl)-ethyl]-pyrrolidin-2-yl}-phenyl)-N-hydroxy-acrylamide], the results for the IC50 in assay [1] and in assay [2] were 0.007 µM and 0.029 µM, respectively.

For the compound `Cc1c(CC(C)(C)C)nn(CCN2CCC[C@H]2c2ccc(/C=C/C(=O)NO)cc2)c1O` [Compound 68, (E)-3-[4-((S)-1-{2-[3-(2,2-Dimethyl-propyl)-5-hydroxy-4-methyl-pyrazol-1-yl]-ethyl}-pyrrolidin-2-yl)-phenyl]-N-hydroxy-acrylamide], the IC50 in assay [1] is 0.04 µM; in assay [2] it was 0.16 µM.

As for `CC(C)(C)n1nnc(CCN2CCC[C@H]2c2ccc(/C=C/C(=O)NO)cc2)n1` [Compound 104, (E)-3-(4-{(S)-1-[2-(2-tert-Butyl-2H-tetrazol-5-yl)-ethyl]-pyrrolidin-2-yl}-phenyl)-N-hydroxy-acrylamide], the IC50 stood at 0.042 µM in assay [1] and 0.36 µM in assay [2].

In the case of `CCn1nc(C)c(CCN2CCC[C@H]2c2ccc(/C=C/C(=O)NO)cc2)c1C` [Compound 96, (E)-3-(4-{(S)-1-[2-(1-Ethyl-3,5-dimethyl-1H-pyrazol-4-yl)-ethyl]-pyrrolidin-2-yl}-phenyl)-N-hydroxy-acrylamide], the IC50 is 0.0017 µM in assay [1] and 0.002 µM in assay [2].

For the compound `Cc1nn(CCN2CCC[C@H]2c2ccc(/C=C/C(=O)NO)cc2)c(C)c1C` [Compound 67, (E)-N-Hydroxy-3-(4-{1-[2-(3,4,5-trimethyl-pyrazol-1-yl)-ethyl]-pyrrolidin-2-yl}-phenyl)-acrylamide], the IC50 in assay [1] was found to be 0.017 µM; in assay [2], 0.039 µM.

For `O=C(/C=C/c1ccc(C2CCCN2CC(O)c2ccc(Cl)cc2)cc1)NO` (centres unmarked) [Compound 31, (E)-3-(4-{1-[2-(4-Chloro-phenyl)-2-hydroxy-ethyl]-pyrrolidin-2-yl}-phenyl)-N-hydroxy-acrylamide], the values for the IC50 in assay [1] and in assay [2] were 0.005 µM and 0.067 µM, respectively.

As for `O=C(/C=C/c1ccc([C@@H]2CCCN2CCc2ccc(F)cc2)cc1)NO` [Compound 21, (E)-3-(4-{(S)-1-[2-(4-Fluoro-phenyl)-ethyl]-pyrrolidin-2-yl}-phenyl)-N-hydroxy-acrylamide], the figures for the IC50 in assay [1] and in assay [2] were 0.008 µM and 0.021 µM, respectively.

On to `Cc1nn2ccccc2c1CCN1CCC[C@H]1c1ccc(/C=C/C(=O)NO)cc1` [Compound 44, (E)-N-Hydroxy-3-(4-{(S)-1-[2-(2-methyl-pyrazolo[1,5-a]pyridin-3-yl)-ethyl]-pyrrolidin-2-yl}-phenyl)-acrylamide], for which the half-maximal inhibitory concentration (IC50) in assay [1] was determined as 0.0006 µM; in assay [2], 0.00038 µM.

With `Cc1cnn(CCN2CCC[C@H]2c2ccc(/C=C/C(=O)NO)cc2)c1` [Compound 64, (E)-N-Hydroxy-3-(4-{(S)-1-[2-(4-methyl-pyrazol-1-yl)-ethyl]-pyrrolidin-2-yl}-phenyl)-acrylamide], the IC50 in assay [1] was determined as 0.062 µM; in assay [2], 0.19 µM.

For `COc1ccc(C(O)CN2CCCC2c2ccc(/C=C/C(=O)NO)cc2)cc1` (centres unmarked) [Compound 30, (E)-N-Hydroxy-3-(4-{1-[2-hydroxy-2-(4-methoxy-phenyl)-ethyl]-pyrrolidin-2-yl}-phenyl)-acrylamide], the IC50 in assay [1] amounted to 0.014 µM; in assay [2] it was 0.046 µM.

For the compound `Cc1nn(CCN2CCC[C@H]2c2ccc(/C=C/C(=O)NO)cc2)cc1Br` [Compound 70, (E)-3-(4-{(S)-1-[2-(4-Bromo-3-methyl-pyrazol-1-yl)-ethyl]-pyrrolidin-2-yl}-phenyl)-N-hydroxy-acrylamide], the results for the IC50 in assay [1] and in assay [2] were 0.03 µM and 0.096 µM, respectively.

For `CCCCn1nc(C)c(CCN2CCC[C@H]2c2ccc(/C=C/C(=O)NO)cc2)c1C` [Compound 97, (E)-3-(4-{(S)-1-[2-(1-Butyl-3,5-dimethyl-1H-pyrazol-4-yl)-ethyl]-pyrrolidin-2-yl}-phenyl)-N-hydroxy-acrylamide], the IC50 in assay [1] and in assay [2] was 0.0017 µM each time.

Take `Cc1n[nH]c(C)c1CCN1CCC[C@H]1c1ccc(/C=C/C(=O)NO)cc1` [Compound 95, (E)-3-(4-{(S)-1-[2-(3,5-Dimethyl-1H-pyrazol-4-yl)-ethyl]-pyrrolidin-2-yl}-phenyl)-N-hydroxy-acrylamide]: the values for the concentration for half-maximal inhibition (IC50) in assay [1] and in assay [2] were 0.0016 µM and 0.003 µM, respectively.

On to `CCc1nn2ccccc2c1CCN1CCC[C@H]1c1ccc(/C=C/C(=O)NO)cc1` [Compound 47, (E)-3-(4-{(S)-1-[2-(2-Ethyl-pyrazolo[1,5-a]pyridin-3-yl)-ethyl]-pyrrolidin-2-yl}-phenyl)-N-hydroxy-acrylamide], for which the figures for the IC50 in assay [1] and in assay [2] were 0.001 µM and 0.00035 µM, respectively.

On to `CC(C)(O)c1nn2ccccc2c1CCN1CCC[C@H]1c1ccc(/C=C/C(=O)NO)cc1` [Compound 48, (E)-N-Hydroxy-3-[4-((S)-1-{2-[2-(1-hydroxy-1-methyl-ethyl)-pyrazolo[1,5-a]pyridin-3-yl]-ethyl}-pyrrolidin-2-yl)-phenyl]-acrylamide], for which the values for the IC50 in assay [1] and in assay [2] were 0.002 µM and 0.003 µM, respectively.

Regarding `O=C(/C=C/c1ccc([C@@H]2CCCN2CCc2c[nH]c3ncccc23)cc1)NO` [Compound 51, (E)-N-Hydroxy-3-(4-{(S)-1-[2-(1H-pyrrolo[2,3-b]pyridin-3-yl)-ethyl]-pyrrolidin-2-yl}-phenyl)-acrylamide], the results for the IC50 in assay [1] and in assay [2] were 0.0012 µM and 0.004 µM, respectively.
